{
  "source": "patent US20120004294A1",
  "about": "“ANTITUMOR COMBINATION COMBINING AVE8062 AND DOCETAXEL” (SANOFI, priority 2008, published 2012)",
  "origin": "cited, not measured here",
  "conditions": "AVE8062A alone, at too high a dose (weekly doses 4.5-30 mg/m^2 studied)",
  "data": [
    {"molecule": "COc1ccc(/C=C\\c2cc(OC)c(OC)c(OC)c2)cc1NC(=O)[C@@H](N)CO", "note": "[AVE8062A]", "values": [
      {"measurement": "Cardiotoxicity", "result": "cardiotoxicity was observed"}
    ]}
  ]
}
